Assay [1] addresses T1, human JMJD5 (Homo sapiens, UniProt Q8N371).
T1 construct: made in house; host or cells: Escherichia coli BL21(DE3)
Description: SPE-MS JMJD5 inhibition assay. It is filed as biochemical. The settings on record: for IC50 / IC50 JMJD5: 2OG 2.0 μM, Fe(II) 2.0 μM, LAA 100 μM, RPS6_128–148 2.0 μM. On the procedure:
Solutions of the small-molecules (100% DMSO) were dry dispensed across 384 well polypropylene V-bottom assay microplates (Greiner) in an approximately three-fold and 11-point dilution series (100 μM inhibitor top concentration; the final DMSO assay concentration was kept constant at 0.5%v/v) using an ECHO 550 acoustic dispenser (Labcyte). […] Each reaction was performed in technical duplicates in adjacent wells of the assay plates; additionally, assays were performed in two independent duplicates on different days using different inhibitor solutions.
The Enzyme Mixture (25 μL per well), containing 0.3 μM His6-thioredoxin-tagged JMJD5 in buffer (50 mM MOPS, pH 7.5), was dispensed across the inhibitor-containing 384-well plates with a multidrop dispenser (ThermoFischer Scientific) at 20 °C under an ambient atmosphere. The plates were subsequently centrifuged (1000 rpm, 5 s) and incubated for 15 min at 20 °C. […] The plates were centrifuged (1000 rpm, 5 s) and, after incubating for 30 min, the enzyme reaction was stopped by the addition of 10%v/v aqueous formic acid (5 μL per well). The plates were then centrifuged (1000 rpm, 30 s) and analyzed by MS.
Z′-Factors were calculated according to the cited literature using Microsoft Excel.[61]

Assay [2] has as its target T1, human JMJD5. Nature of the assay: SPE-MS JMJD5 turnover and kinetic assay (RPS6_128–148 hydroxylation). The assay is classed as biochemical. The settings on record: absence of 2OG; JMJD5 0.15 μM, 2OG derivative 400 μM, Fe(II) 20 μM, RPS6_128–148 2.0 μM. On the procedure:
JMJD5 turnover assays for time course and kinetic experiments were performed in 96-well polypropylene assay plates (Greiner) with either […] total reaction volume using the concentrations given in the manuscript or ESI, ^† and JMJD5-catalysed substrate hydroxylation was directly monitored using SPE-MS. […] Assay samples were aspirated under vacuum for 0.6 s and loaded onto a C4 solid phase extraction (SPE) cartridge. After loading, the C4 SPE cartridge was washed with 0.1%v/v aqueous formic acid to remove non-volatile buffer salts (5.5 s, 1.5 mL min^−1). The peptide was eluted from the SPE cartridge with 0.1%v/v aqueous formic acid in 80/20v/v acetonitrile/water into the mass spectrometer (5.5 s, 1.5 mL min^−1) and the SPE cartridge re-equilibrated with 0.1%v/v aqueous formic acid (0.5 s, 1.5 mL min^−1). The mass spectrometer was operated using the MassHunter Workstation B.08.00 software (Agilent), the mass spectrometer parameters were: capillary voltage (4000 V), nozzle voltage (1000 V), fragmentor voltage (365 V), gas temperature (280 °C), gas flow (13 L min^−1), sheath gas temperature (350 °C), sheath gas flow (12 L min^−1). […] Data were exported into Microsoft Excel and used to calculate the % conversion of the hydroxylation reaction using the equation: % conversion = 100 × (integral product peptide)/(integral substrate peptide + integral product peptide).
parameters (continues on the following two pages). Maximum velocities (vapp ) and Michaelis constants (Kapp)
of JMJD5 were determined in independent triplicates, monitoring the JMJD5-catalyzed hydroxylation of the
SPE-MS, as described (Experimental Section).
20 °C). Measurement times were normalized to the first sample injection analyzed after the addition of JMJD5 to
shown as the mean of three independent runs (n = 3; mean ± standard deviation, SD).
hexahydrate (20 μM, (NH4)2Fe(SO4)2·6H2O); and (b) hydroxylation rates used to determine kinetic parameters of
(1 picture or pasted object on this page, not shown here)
Maximum velocities (vapp ) and
Michaelis constants (Kapp) of JMJD5 were determined in independent triplicates for (1R)-3-
(carboxycarbonyl)cyclopentane-1-carboxylic acid (14), monitoring the JMJD5-catalyzed hydroxylation of the
as described (Experimental Section).
pH 7.5, 20 °C). Measurement times were normalized to the first sample injection analyzed after the addition of
(§1) Data are shown as the mean of three independent runs (n = 3; mean ± SD).
to determine kinetic parameters of JMJD5 for 14.

Another assay addresses T2, human KDM4E (Homo sapiens, UniProt B2RXH2).
T2 sequence (B2RXH2 1-506): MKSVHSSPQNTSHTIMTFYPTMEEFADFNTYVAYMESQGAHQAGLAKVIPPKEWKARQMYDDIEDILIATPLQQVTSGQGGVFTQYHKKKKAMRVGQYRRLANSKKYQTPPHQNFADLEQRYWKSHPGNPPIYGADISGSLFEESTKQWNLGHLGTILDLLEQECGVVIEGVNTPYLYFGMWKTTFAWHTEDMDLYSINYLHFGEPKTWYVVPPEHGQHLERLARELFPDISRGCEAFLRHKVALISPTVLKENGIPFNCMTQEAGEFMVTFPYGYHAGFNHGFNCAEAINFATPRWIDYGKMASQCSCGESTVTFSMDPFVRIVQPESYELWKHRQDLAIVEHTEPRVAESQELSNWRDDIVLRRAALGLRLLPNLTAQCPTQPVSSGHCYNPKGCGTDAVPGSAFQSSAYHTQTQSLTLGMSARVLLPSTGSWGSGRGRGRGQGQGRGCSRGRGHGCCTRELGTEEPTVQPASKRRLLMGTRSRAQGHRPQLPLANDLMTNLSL
Description: KDM4E SPE-MS turnover and kinetic assay (H3 K9(me3) peptide demethylation). The conditions noted are these: absence of 2OG; KDM4E 0.15 μM, 2OG derivative 330 μM, Fe(II) 50 μM, ARTAQTARK(me3)STGGIA 10.0 μM. It is filed as biochemical. On the procedure: KDM4E turnover and inhibition assays were performed as reported using recombinant human KDM4E and a histone 3 K9(me3) derivative (i.e. […](me3)STGGIA)[41] as substrate.[95]
Supplementary Figure S3. Rates of KDM4E-catalyzed Nε-trimethyl lysine demethylations of a histone 3- […]
Maximum velocities (vapp ) and Michaelis […]
catalyzed Nε-trimethyl lysine demethylation of the histone 3 K9(me3)-derived peptide […]
(me3)STGGIA2 by SPE-MS as described;3 note that mono-, di-, and tri-demethylated product […]
buffer (50 mM MES, pH 7.0, 20 °C). Measurement times were normalized to the first sample injection analyzed […]
as §1
(a) Time course of the KDM4E-catalyzed Nε-trimethyl lysine demethylation reaction of the […]

For a further assay, the system named is human FIH. The settings on record: absence of 2OG; FIH 0.15 μM, 2OG derivative 330 μM, Fe(II) 50 μM, HIF-1α788–822 5.0 μM; cited from earlier work.
In the next assay the test system is human AspH. The conditions noted are these: absence of 2OG; AspH 0.1 μM, 2OG derivative 330 μM, Fe(II) 50 μM, hFX-CP101–119 2.0 μM; cited from earlier work.
[3] abbreviates: JMJD5 0.15 μM, read-out: IC50 JMJD5.

Like-named read-outs stand apart in the source and are kept apart here.

T1 sequence (Q8N371 whole entry): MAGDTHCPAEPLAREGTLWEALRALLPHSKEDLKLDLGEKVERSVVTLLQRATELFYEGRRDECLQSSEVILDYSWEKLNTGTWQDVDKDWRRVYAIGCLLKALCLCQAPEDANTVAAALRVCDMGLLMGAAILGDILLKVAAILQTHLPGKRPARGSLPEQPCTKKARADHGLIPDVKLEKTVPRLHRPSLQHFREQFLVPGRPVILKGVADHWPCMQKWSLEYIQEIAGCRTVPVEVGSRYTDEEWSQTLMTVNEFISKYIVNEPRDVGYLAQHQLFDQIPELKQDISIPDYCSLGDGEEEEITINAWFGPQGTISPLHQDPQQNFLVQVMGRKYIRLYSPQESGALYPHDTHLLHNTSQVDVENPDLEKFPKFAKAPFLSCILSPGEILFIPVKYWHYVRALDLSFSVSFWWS

On to `O=C(O)CCNc1cc(N2CCc3ccccc3CC2)nc(-c2ccccn2)n1` [C00036], for which the IC50 (usually the midpoint of a concentration-inhibition curve) on human JMJD5 [1] (setting [3]) was found to be 4.4 ± 0.5 µM.
For `O=c1c(-n2ccnn2)c[nH]n1-c1cc(N2CCOCC2)ncn1` [C00039, reference compound], the IC50 at human JMJD5 [1] (setting [3]) was 29.5 ± 1.6 µM.
`O=C(O)c1ccc(O)c2ncccc12` [C00029] gave an IC50 against human JMJD5 [1] (IC50 JMJD5, JMJD5 0.15 μM) of 2.6 ± 0.1 µM.
As to `O=C(O)CCNc1cc(N2CCc3ccccc3CC2)nc(-c2ccccn2)n1` [GSK-J1, reference compound], the IC50 at human JMJD5 [1] (setting [3]) is about 4.4 µM.
`O=C(O)CNC(=O)c1c(O)c2ccccc2n(OCC2CC2)c1=O` [C00037, reference compound] came in with an IC50 at human JMJD5 [1] (IC50 JMJD5, JMJD5 0.15 μM) of 37.2 ± 6 µM.
Regarding `CN(C)CCCNC(=O)c1ccc(-c2cc(O)c3ncccc3c2)cc1` [C00034], the IC50 at human JMJD5 [1] (setting [3]) turned out to be 3 ± 0.5 µM.
With `O=c1c2ccccc2[se]n1-c1ccccc1` [ebselen, reference compound], on human JMJD5 [1], the “Hill coefficient of the JMJD5 inhibition curve” value is given as at least 2. For the same compound, the IC50 on human JMJD5 [1] (setting [3]) was about 0.7 µM.
Consider `O=C(O)C(=O)c1ccc(C(=O)O)cc1` [C00018], for which the “JMJD5 (%): RPS6_128–148 hydroxylation with the compound as cosubstrate” value (from here on “JMJD5 (%): RPS6_128–148 hydroxylation”) at human JMJD5 [2] was under 1%. Moreover, the “KDM4E (%): substrate demethylation with the compound as cosubstrate” value (from here on “KDM4E (%): substrate demethylation”) at human KDM4E is reported as under 1%. Further, in the assay with human FIH, the “FIH (%): substrate hydroxylation with the compound as cosubstrate” value (shortened to “FIH (%): substrate hydroxylation”) was under 1%. Moreover, in the assay on human AspH, the “AspH (%): substrate hydroxylation with the compound as cosubstrate” value (from here on “AspH (%): substrate hydroxylation”) is given as “∼80%”.
As to `CN(C)NC(=O)CCC(=O)O` [daminozide, reference compound], the IC50 against human JMJD5 [1] (IC50 JMJD5, JMJD5 0.15 μM) is over 100 µM.
Regarding `O=C(O)CNC(=O)C(=O)O` [C00025], the IC50 on human JMJD5 [1] (setting [3]) was 0.15 ± 0.02 µM.
In the case of `Cc1nc(C(=O)NCC(=O)O)c(O)c2ccc(Oc3ccccc3)cc12` [roxadustat, reference compound], the “IC50 JMJD5” value at human JMJD5 [1] (JMJD5 0.15 μM) was “does not inhibit JMJD5 at substantial levels”.
In the case of `CCC(CC(=O)C(=O)O)C(=O)O` (centres unmarked) [C00004], the “JMJD5 (%): RPS6_128–148 hydroxylation” value on human JMJD5 [2] is “∼10%”. In addition, the “KDM4E (%): substrate demethylation” value at human KDM4E was under 1%. The “FIH (%): substrate hydroxylation” value with human FIH was “∼10%”. For the same compound, the “AspH (%): substrate hydroxylation” value with human AspH is recorded as under 1%.
For the compound `O=C(O)C(=O)CC(CCCc1ccccc1)C(=O)O` (centres unmarked) [C00008], the “JMJD5 (%): RPS6_128–148 hydroxylation” value on human JMJD5 [2] is reported as under 1%. The “KDM4E (%): substrate demethylation” value at human KDM4E was under 1%. In addition, the “FIH (%): substrate hydroxylation” value in the assay on human FIH is reported as under 1%. The “AspH (%): substrate hydroxylation” value in the assay with human AspH is recorded as under 1%.
For the compound “3-(9,9-dimethyl-9H-fluoren-2-yl)methyl-2OG [2OG derivative 7]”, the “JMJD5 (%): RPS6_128–148 hydroxylation” value on human JMJD5 [2] was under 1%. Moreover, at human JMJD5 [1] (setting [3]), the IC50 was over 50 µM. The “KDM4E (%): substrate demethylation” value on human KDM4E is under 1%. Also, in the assay on human FIH, the “FIH (%): substrate hydroxylation” value was under 1%. Also, the “AspH (%): substrate hydroxylation” value in the assay on human AspH was under 1%.
`CCCC(CC(=O)O)C(=O)C(=O)O` (centres unmarked) [C00007]: on human JMJD5 [2], the “JMJD5 (%): RPS6_128–148 hydroxylation” value was under 1%. Moreover, the “KDM4E (%): substrate demethylation” value on human KDM4E was under 1%. Also, in the assay with human FIH, the “FIH (%): substrate hydroxylation” value was under 1%. In addition, the “AspH (%): substrate hydroxylation” value with human AspH is under 1%.
Regarding `CC(CC(=O)O)C(=O)C(=O)O` (centres unmarked) [C00003], the “JMJD5 (%): RPS6_128–148 hydroxylation” value on human JMJD5 [2] is recorded as “∼10%”. The “KDM4E (%): substrate demethylation” value on human KDM4E was “∼10%”. The “FIH (%): substrate hydroxylation” value in the assay with human FIH was “∼55%”. In the assay with human AspH, the “AspH (%): substrate hydroxylation” value was over 95%.
Turning to `CN(C)CCCNC(=O)c1ccc(-c2cc(O)c3ncccc3c2)cc1` [ML324, reference compound], the “Hill coefficient of the JMJD5 inhibition curve” value on human JMJD5 [1] is reported as at least 2.
`CC(CC(=O)C(=O)O)C(=O)O` (centres unmarked) [C00017]: the “JMJD5 (%): RPS6_128–148 hydroxylation” value on human JMJD5 [2] is listed as “∼10%”. Further, on human KDM4E, the “KDM4E (%): substrate demethylation” value is reported as under 1%. Moreover, the “FIH (%): substrate hydroxylation” value with human FIH is listed as “∼45%”. The “AspH (%): substrate hydroxylation” value with human AspH is “∼10%”.
`O=C(O)C(=O)N[C@H](Cc1ccccc1)C(=O)O` [NOFD, N-Oxalyl-D-phenylalanine, reference compound]: at human JMJD5 [1] (JMJD5 0.15 μM), the “IC50 JMJD5” value is recorded as “does not inhibit JMJD5 in the concentration range tested”.
Consider `O=C(O)C(=O)N[C@H](Cc1ccccc1)C(=O)O` [C00030], for which, on human JMJD5 [1] (setting [3]), the IC50 was over 100 µM.
`O=C(O)CNC(=O)c1c(O)c2ccccc2n(Cc2ccccc2)c1=O` [C00035, reference compound]: on human JMJD5 [1] (setting [3]), the IC50 was 17.8 ± 5.6 µM.
As to `O=C(O)CNC(=O)C(=O)O` [NOG, N-oxalylglycine, reference compound], the IC50 on human JMJD5 [1] (setting [3]) is about 0.2 µM.
The same measure, in the same setting: the figure for `O=c1c2ccccc2[se]n1-c1ccccc1` [C00031] is 0.69 ± 0.15 µM.
On to `CC1(C)c2ccccc2-c2ccc(CC(CC(=O)O)C(=O)C(=O)O)cc21` (centres unmarked) [C00015], for which the “JMJD5 (%): RPS6_128–148 hydroxylation” value at human JMJD5 [2] is listed as under 1%. The “KDM4E (%): substrate demethylation” value on human KDM4E is under 1%. In addition, the “FIH (%): substrate hydroxylation” value with human FIH is listed as under 1%. Besides, the “AspH (%): substrate hydroxylation” value in the assay with human AspH is under 1%.

(Values after article PMC10246557, “Kinetic and inhibition studies on human Jumonji-C (JmjC) domain-containing protein 5” (RSC Chemical Biology, 2023).)
